Reference: patent publication US20120220528A1, “SYSTEMS AND METHODS FOR THERAPY OF KIDNEY DISEASE AND/OR HEART FAILURE USING CHIMERIC NATRIURETIC PEPTIDES” (MEDTRONIC, INC., priority 2011, published 2012)
“Also recorded” adds a separate entry of the source. Bridges are numbered along the chain shown (N, C = ends). Where no end group is shown, it is not given here.

Legend:
[1] = tested on: Human renal medullary epithelial cells; assay: In vitro cell-based assay of cGMP production; details: 9000, 3000, 300, 30, 10 and 0 nM, 15 minutes, ELISA
healthy canines [2] = assay: Healthy canines: diuresis and natriuresis after subcutaneous bolus; format: in vivo, canine; details: SQ bolus, BNP 25 μg/kg
healthy canines [3] = assay: Healthy canines: diuresis and natriuresis with IV infusion; format: in vivo, canine; details: one-hour IV infusion; CD-NP 100 ng/kg·min, BNP 30 ng/kg·min

In the case of “ANP: human atrial natriuretic peptide (Phoenix Pharmaceuticals), control; ligand to the NPR-A receptor (SLRRSSCFGGRMDRIGAQSGLGCNSFRY; disulfide 7-23 (inferred); ends not checked; UniProt P01160 124-151, looked up)”, the “stimulation of cGMP production” value [1] is reported as “significantly less”.
With “BNP: commercial preparation of Natrecor; recombinant form of the 32 amino acid human B-type natriuretic peptide, comparative natriuretic peptide” the “sodium excretion (natriuresis) following subcutaneous bolus” value (healthy canines [2]; CD-NP 27 μg/kg) was “increase”, the “urine flow following subcutaneous bolus vs baseline” value (healthy canines [2]; CD-NP 27 μg/kg (equimolar)) was “increase; also recorded: statistically significant” and the sodium excretion (healthy canines [3]) was “increasing trend”. The “urine flow from baseline” value (healthy canines [3]) was “increasing trend”.
